According to patent US7705016B2, “Regulation of food intake by modulation of long-chain fatty acyl-CoA levels in the hypothalamus” (Albert Einstein College of Medicine of Yeshiva University, priority 2003, dated 2010):
Entries after “also recorded” stand apart in the source; their conditions may differ.

Columns and labels:
hepatic glucose fluxes = assay: Hepatic glucose fluxes (flux through Glc-6-Pase, glucose cycling, direct pathway) after ICV OA; type: in vivo, rat
Protocol: Analytical Procedures and Calculations. Plasma glucose was measured by the glucose oxidase method (Glucose Analyzer II, Beckman Instruments, Inc. Fullerton, Calif., USA). Plasma insulin and leptin levels were determined by RIA (rat Leptin RIA kit, Linco Research Inc., St. Charles, Mo.). Serum adiponectin was measured by RIA (Linco Research, Inc., St. Charles, Mo.). Plasma non-esterified fatty acid concentrations were determined an enzymatic method by an automated kit according to the manufacturer's specifications (Waco Pure Chemical Industries. Osaka, Japan). The radioactivity of [3-^3H]glucose in plasma was measured from supernatants of Ba (OH)2 and from ZnSO4 precipitates (Somogyi procedure), after each was evaporated to dryness for the removal of tritiated water. Hepatic uridine diphosphoglucose (UDP-glucose) concentrations and specific activities were obtained by two sequential chromatographic separations, as previously described (Giaccari and Rossetti, 1989; 1992; Rossetti et al., 1993; 1996). Calculations were performed as described (Barzilai et al., 1997).
ICV OA markedly decreases the in vivo flux through Glc-6-Pase. GP represents the net contribution of glucosyl units derived from gluconeogenesis and glycogenolysis. However, a portion of glucose entering the liver via phophorylation by glucokinase is also a substrate for de-phosphorylation via Glc-6-Pase. This futile cycle between glucokinase and Glc-6-Pase is commonly named glucose cycling and accounts for the difference between the total glucose output (flux through Glc-6-Pase) and GP (FIG. 9a).
In order to further delineate the mechanisms responsible for the effect of ICV OA infusion on hepatic glucose production we estimated the in vivo flux through Glc-6-Pase and the relative contribution of glucose cycling to glucose output (Table 3; FIG. 9b,c). FIG. 9b,c depict the effect of ICV OA and ICV vehicle on the rates of hepatic glucose fluxes during the pancreatic-insulin clamp procedure. […]

hypothalamic CPT1 = target: T1, hypothalamic CPT1 (Rattus norvegicus, UniProt P32198); assay: Food intake after ICV bolus of CPT1 antagonists; type: in vivo; parameters: CPT1 activity was measured in the particulate fraction of protein extracts from animals treated with ICV control injections; from tissue; host or cells: hypothalamus (arcuate nucleus) of male Sprague-Dawley rats, in vivo or ex vivo; conditions: for decrease in daily food intake: 24-48 h after single ICV administration, ST 1326 high dose; for change in food intake from baseline: ST 1326 high dose (25 pmoles); for effect on food intake / feeding behavior: single ICV injection
T1 sequence (P32198 1-773): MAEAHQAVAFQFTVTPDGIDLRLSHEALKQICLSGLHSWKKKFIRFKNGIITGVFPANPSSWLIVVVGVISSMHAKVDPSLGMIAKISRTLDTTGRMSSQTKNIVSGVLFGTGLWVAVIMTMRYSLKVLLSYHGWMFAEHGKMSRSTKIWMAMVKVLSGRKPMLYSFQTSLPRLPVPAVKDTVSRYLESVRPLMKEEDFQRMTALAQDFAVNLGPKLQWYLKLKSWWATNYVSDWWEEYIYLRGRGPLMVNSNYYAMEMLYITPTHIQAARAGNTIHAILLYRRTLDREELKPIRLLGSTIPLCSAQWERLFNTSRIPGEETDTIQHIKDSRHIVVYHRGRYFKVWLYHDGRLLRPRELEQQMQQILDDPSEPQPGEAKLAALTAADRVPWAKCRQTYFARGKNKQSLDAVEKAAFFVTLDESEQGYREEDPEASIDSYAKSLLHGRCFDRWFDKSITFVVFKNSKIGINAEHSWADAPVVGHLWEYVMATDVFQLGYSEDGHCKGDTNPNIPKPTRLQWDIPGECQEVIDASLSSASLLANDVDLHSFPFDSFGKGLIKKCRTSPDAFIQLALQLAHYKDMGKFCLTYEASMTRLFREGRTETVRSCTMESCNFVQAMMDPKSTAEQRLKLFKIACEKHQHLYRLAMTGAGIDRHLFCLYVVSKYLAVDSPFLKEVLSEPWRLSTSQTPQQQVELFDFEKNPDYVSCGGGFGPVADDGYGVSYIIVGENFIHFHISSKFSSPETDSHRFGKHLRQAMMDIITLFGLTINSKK
Protocol: Hypothalamic inhibition of CPT1 decreases food intake. First we examined whether central administration of molecular and pharmacological antagonists of CPT1 modulates feeding behavior in conscious rats (FIG. 3). […] Food intake was monitored in metabolic cages before and up to 72 h after the ICV injections (Obici et al., 2002a). […] The marked effect of ICV CPT1L-Ribo on food intake was significant when compared with either control vector or with an unrelated control ribozyme (FIG. 3c). […] The anorectic effect of central CPT1 inhibition lasted for at least 48 h following a single ICV administration. These decreases in food intake were significant compared with both baseline and vehicle/control (FIG. 3a-e). The changes from baseline induced by CPT1 inhibition were statistically significant at 24 h (−17.6±2.0 g and −12.4±3.9 g), and 48 h (−13.4±1.8 g and −7.8±3.8 g) following ICV administration of CP1L-Ribo and high dose ST 1326, respectively (FIGS. 3b and e). This represented a ˜50% decrease in daily food intake, which returned toward baseline values by 72 h.
Animal preparation for in vivo experiments. We studied ninety-three 10-week old male Sprague-Dawley rats (Charles River Breeding Laboratories, Wilmington, Mass.). Rats were housed in individual cages and subjected to a standard light-dark cycle. Three weeks prior to the in vivo studies, we placed a chronic catheter in the third cerebral ventricle by stereotaxic surgery (Obici et al., 2002a; Obici et al., 2001; Liu et al., 1998). One week before the pancreatic-insulin clamp protocols, we placed additional catheters in the right internal jugular and left carotid artery (Obici et al., 2001; Liu et al., 1998). All ICV solutions were dissolved in artificial cerebral spinal fluid (aCSF). Food intake was monitored daily.
Effect of central inhibition of CPT1 and food intake. We examined the effects of ICV CPT1L-Ribo and ST 1326 on food intake. Three-hours before the start of the dark cycle, CPT1L-Ribo or vector control, ST 1326 or ST 1340 was injected as a bolus via indwelling catheters implanted in the third cerebral ventricle. In the feeding studies, rats received a single bolus injection of 25 pmoles of ST1340 or two different doses (5 and 25 pmoles) of ST1326. Rats were adapted to the metabolic cages and their daily food intake had been constant (changes <10%) for a minimum of three consecutive days preceding the ICV injections. Food intake was continuously monitored for the following 72 h.

[1] = caloric restricted rats (55 kcal/d)
[2] = 24 h after single ICV administration
[3] = 48 h after single ICV administration

| inhibition of daily food intake (hypothalamic CPT1; 5 pmoles single ICV injection) | food intake on day 3 compared to control group (hypothalamic CPT1; 25 pmoles (high dose) single ICV injection, day 3) | inhibition of daily food intake (hypothalamic CPT1; 25 pmoles single ICV injection) | Compound | glucose cycling (hepatic glucose fluxes; [1]) | total glucose output (in vivo flux through glucose-6-phosphatase) (hepatic glucose fluxes; [1]) | glucose cycling (hepatic glucose fluxes; over-fed rats (140 kcal/d)) | decrease in daily food intake (hypothalamic CPT1) [%] | change in food intake from baseline (hypothalamic CPT1; [2]) [g] | change in food intake from baseline (hypothalamic CPT1; [3]) [g] | effect on food intake / feeding behavior (hypothalamic CPT1) | average food intake (hypothalamic CPT1; first night following ICV administration) [gr./day] |
| --- | --- | --- | --- | --- | --- | --- | --- | --- | --- | --- | --- |
| – | – | – | CCCCCCCC/C=C\CCCCCCCC(=O)O [OA, oleic acid] | modestly and similarly decreased | markedly suppressed | modestly and similarly decreased | – | – | – | – | – |
| statistically significant on day 1 and 2 | significantly lowered food intake | statistically significant on day 1 and 2 | CCCCCCCCCCCCCCNC(=O)N[C@H](CC(=O)[O-])C[N+](C)(C)C [ST1326, (R)-N-(tetradecylcarbamoyl)-aminocarnitine] | – | – | – | ~50 | -12.4 ± 3.9 | -7.8 ± 3.8 | markedly inhibited food intake | – |
| – | – | – | CPT1L-Ribo: plasmid (pTarget, CMV promoter) expressing a hammerhead ribozyme that specifically cleaves rat CPT1L mRNA, complexed to PEI for ICV injection (DNA CUGUACCAAAGAGCUGUAGAGUCCGUGAGGACGAAACGCCGCUCACAAUG) | – | – | – | ~50 | -17.6 ± 2.0 | -13.4 ± 1.8 | significantly suppressed from day 1 to day 3; also recorded: rapid onset of anorexia | 13.0±1.9 |
